Assay results taken from publication PMC10096344 (Molecules, 2023).

How the values were obtained:
[1] = tested on: P. aeruginosa (ATCC27853) biofilm; test: Bacterial biofilm formation (FITC staining, crystal violet staining); format: cell-based, Pseudomonas aeruginosa; settings: with 10 μg/mL LP4C
Description: The bacterial biofilm growth and measurement was performed according to our previously reported method. Briefly, P. aeruginosa (ATCC27853) was cultured in the tube with nutrient broth containing 2% (w/v) glucose, shaken at 220 rpm for 12 h at 37 °C. The suspension was diluted to 1 × 10^6 CFU/mL and added to 96-well plates, the bacteria was cultured for 24 h at 37 °C for biofilm growth and the planktonic bacterial of each well was removed by PBS rinsing three times. To observe the biofilm formation, the fluorescein isothiocyanate (FITC) was added into the plates and incubated for 2 h at 37 °C; the labeled biofilm was then washed by PBS and visualized under the fluorescence microscopy (Olympus CKX53, Tokyo, Japan). The measurement of biofilm was performed according to the following procedure: the mature biofilm was fixed with 150 μL methanol and left to air dry, then stained with 150 μL of 1% (w/v) crystal violet solution for 15 min at room temperature. The plate was rinsed with PBS three times and 150 μL of glacial acetic acid was added to each well; the optical density was measured at 630 nm optical density using a microplate reader (Bio-Tek ELX800, Berten, USA).

[2] = tested on: P. aeruginosa (ATCC27853); test: Anti-bacterial activity, inhibition zone diameter on agar; format: cell-based, Pseudomonas aeruginosa; settings: for growth inhibition / bactericidal activity (inhibition zone): reference antibiotic 10 μg/mL
Description: P. aeruginosa (ATCC27853) was cultured in 3 mL LB culture medium, shaken at 220 rpm for 12 h at 37 °C and diluted to 1 × 10^6 CFU/mL. The culture disk was coated with 1% agar, and 100 μL bacterial suspension was added to the agar in the disk evenly. […] LP4C or reference antibiotics were then added in each hole. The disk was cultured for 12–16 h at 37 °C; the result was then observed and the inhibition zone diameter was measured.

[3] = tested on: P. aeruginosa PAO1 strain; design: method as in PMID 21852522; settings: cited from earlier work
[4] = supplementation 1, 10 and 100 μM

Structure (SMILES)	reversal of biofilm formation impaired by LP4C [1, 4]	growth inhibition / bactericidal activity (inhibition zone) [2]	also measured
O=c1ccn([C@@H]2O[C@H](CO[P@@](=O)(O)O[P@@](=O)(O)OP(=O)(O)O)[C@@H](O)[C@H]2O)c(=O)[nH]1 (stereo in doubt) [UTP, uridine triphosphate, reference compound]	could reverse the biofilm formation ability impaired by 10 μg/mL LP4C	–	–
O=c1ccn([C@@H]2O[C@H](COP(=O)(O)O)[C@@H](O)[C@H]2O)c(=O)[nH]1 [UMP, uridine monophosphate, reference compound]	could reverse the biofilm formation ability impaired by 10 μg/mL LP4C	–	–
CC(C)(O/N=C(\C(=O)N[C@@H]1C(=O)N2C(C(=O)[O-])=C(C[n+]3ccccc3)CS[C@H]12)c1csc(N)n1)C(=O)O [ceftazidime]	–	no bactericidal activity	–
C[C@@H](O)[C@H]1C(=O)N2C(C(=O)O)=C(SCCN=CN)C[C@H]12 [imipenem]	–	could inhibit the growth of P. aeruginosa obviously	zone of inhibition at 10 µg/mL ([2]; Pseudomonas aeruginosa, ATCC27853, 10 μg/mL, value printed in Figure 1A): 29.4 mm
CC(C)=CC[C@@H](O)C1=CC(=O)c2c(O)ccc(O)c2C1=O [shikonin]	–	–	concentration that inhibits biofilm formation [3]: 200 µM
O=c1cc[nH]c(=O)[nH]1 [uracil, reference compound]	–	–	reversal of biofilm formation impaired by LP4C ([1]; supplementation 10 and 100 μM): could reverse the biofilm formation ability impaired by 10 μg/mL LP4C
